Assay results published in ChEMBL document CHEMBL1909046, “DrugMatrix in vitro pharmacology data”.

Legend:
B2 bradykinin receptor = target: T1, B2 bradykinin receptor (Homo sapiens, UniProt P30411); type: cell membranes, Membrane; details: chem-1; further: in other assays of this panel Not Active means under 50% inhibition at 10 µM
T1 sequence (P30411 whole entry): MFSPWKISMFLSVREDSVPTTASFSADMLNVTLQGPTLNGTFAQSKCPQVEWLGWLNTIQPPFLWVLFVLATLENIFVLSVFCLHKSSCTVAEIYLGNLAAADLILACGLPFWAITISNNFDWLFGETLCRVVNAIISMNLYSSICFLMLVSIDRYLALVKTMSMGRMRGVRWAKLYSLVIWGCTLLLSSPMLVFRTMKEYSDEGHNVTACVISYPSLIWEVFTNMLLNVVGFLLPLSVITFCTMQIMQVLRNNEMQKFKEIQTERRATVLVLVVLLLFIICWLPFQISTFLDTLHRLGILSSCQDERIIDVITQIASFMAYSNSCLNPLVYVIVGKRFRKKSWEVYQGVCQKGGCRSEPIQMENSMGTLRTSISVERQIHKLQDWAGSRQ

[1] = target: T2, Muscarinic acetylcholine receptor M2 (Homo sapiens, UniProt P08172); type: cell membranes, CHO-K1, Membrane; details: cho-k1; further: in other assays of this panel Not Active means under 50% inhibition at 10 µM
T2 sequence (P08172 whole entry): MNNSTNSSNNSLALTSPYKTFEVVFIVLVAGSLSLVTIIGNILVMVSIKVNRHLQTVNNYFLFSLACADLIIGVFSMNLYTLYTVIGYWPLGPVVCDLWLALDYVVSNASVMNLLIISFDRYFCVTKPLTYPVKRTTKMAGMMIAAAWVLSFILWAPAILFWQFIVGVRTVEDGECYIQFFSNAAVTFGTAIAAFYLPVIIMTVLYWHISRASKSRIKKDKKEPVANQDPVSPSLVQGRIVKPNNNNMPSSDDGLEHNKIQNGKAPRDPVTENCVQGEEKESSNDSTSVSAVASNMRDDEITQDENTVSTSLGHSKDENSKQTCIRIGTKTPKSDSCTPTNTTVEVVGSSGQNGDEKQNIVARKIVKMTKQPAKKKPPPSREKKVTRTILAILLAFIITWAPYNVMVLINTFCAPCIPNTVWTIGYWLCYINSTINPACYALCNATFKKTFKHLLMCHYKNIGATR

Vasopressin V1a receptor = Vasopressin V1a receptor (Homo sapiens, UniProt P37288); type: cell membranes, Membrane; details: hek293; further: in other assays of this panel Not Active means under 50% inhibition at 10 µM
[2] = target: Protein phosphatase 3 catalytic subunit alpha (Homo sapiens, UniProt Q08209); design: species or system Escherichia coli;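 further: inhibition of calcineurin (PP2B) enzyme activity, measured with DiFMUP as the substrate; in other assays of this panel Not Active means under 50% inhibition at 10 µM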
[3] = target: Prostaglandin G/H synthase 1 (Homo sapiens, UniProt P23219); assay: biochemical; type: tissue-based, Platelet; details: platelet
Insulin receptor = Insulin receptor (Rattus norvegicus, UniProt P15127); type: cell membranes, Wistar, Liver, Membrane; further: in other assays of this panel Not Active means under 50% inhibition at 10 µM
[4] = DRUGMATRIX: Leukotriene, BLT (LTB4) radioligand binding (ligand: [3H]LTB4); type: cell membranes, Membrane; details: u-937; Not Active = under 50% inhibition at 10 µM
Neutrophil elastase = target: T3, Neutrophil elastase (Homo sapiens, UniProt P08246); type: tissue-based
T3 sequence (P08246 whole entry): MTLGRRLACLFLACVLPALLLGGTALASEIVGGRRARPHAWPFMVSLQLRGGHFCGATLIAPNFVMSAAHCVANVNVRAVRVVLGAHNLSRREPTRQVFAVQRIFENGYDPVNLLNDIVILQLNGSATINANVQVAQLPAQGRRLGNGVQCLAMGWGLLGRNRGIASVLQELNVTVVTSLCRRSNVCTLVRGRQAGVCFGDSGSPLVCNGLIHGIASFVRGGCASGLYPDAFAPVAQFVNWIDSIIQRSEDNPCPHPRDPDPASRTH

Nitric oxide synthase 1 = Nitric oxide synthase 1 (Rattus norvegicus, UniProt P29476); type: tissue-based, Cerebellum; further: in other assays of this panel Not Active means under 50% inhibition at 10 µM
[5] = target: Matrix metalloproteinase-9 (Homo sapiens, UniProt P14780); type: cell-based
[6] = DRUGMATRIX: Imidazoline I2, Central radioligand binding (ligand: [3H] Idazoxan); type: cell membranes, Rattus norvegicus, Wistar, Cerebral cortex, Membrane; details: Not Active = under 50% inhibition at 10 µM
[7] = target: T4, Nitric oxide synthase, inducible (Mus musculus, UniProt P29477); design: species or system Escherichia coli
T4 sequence (P29477 whole entry): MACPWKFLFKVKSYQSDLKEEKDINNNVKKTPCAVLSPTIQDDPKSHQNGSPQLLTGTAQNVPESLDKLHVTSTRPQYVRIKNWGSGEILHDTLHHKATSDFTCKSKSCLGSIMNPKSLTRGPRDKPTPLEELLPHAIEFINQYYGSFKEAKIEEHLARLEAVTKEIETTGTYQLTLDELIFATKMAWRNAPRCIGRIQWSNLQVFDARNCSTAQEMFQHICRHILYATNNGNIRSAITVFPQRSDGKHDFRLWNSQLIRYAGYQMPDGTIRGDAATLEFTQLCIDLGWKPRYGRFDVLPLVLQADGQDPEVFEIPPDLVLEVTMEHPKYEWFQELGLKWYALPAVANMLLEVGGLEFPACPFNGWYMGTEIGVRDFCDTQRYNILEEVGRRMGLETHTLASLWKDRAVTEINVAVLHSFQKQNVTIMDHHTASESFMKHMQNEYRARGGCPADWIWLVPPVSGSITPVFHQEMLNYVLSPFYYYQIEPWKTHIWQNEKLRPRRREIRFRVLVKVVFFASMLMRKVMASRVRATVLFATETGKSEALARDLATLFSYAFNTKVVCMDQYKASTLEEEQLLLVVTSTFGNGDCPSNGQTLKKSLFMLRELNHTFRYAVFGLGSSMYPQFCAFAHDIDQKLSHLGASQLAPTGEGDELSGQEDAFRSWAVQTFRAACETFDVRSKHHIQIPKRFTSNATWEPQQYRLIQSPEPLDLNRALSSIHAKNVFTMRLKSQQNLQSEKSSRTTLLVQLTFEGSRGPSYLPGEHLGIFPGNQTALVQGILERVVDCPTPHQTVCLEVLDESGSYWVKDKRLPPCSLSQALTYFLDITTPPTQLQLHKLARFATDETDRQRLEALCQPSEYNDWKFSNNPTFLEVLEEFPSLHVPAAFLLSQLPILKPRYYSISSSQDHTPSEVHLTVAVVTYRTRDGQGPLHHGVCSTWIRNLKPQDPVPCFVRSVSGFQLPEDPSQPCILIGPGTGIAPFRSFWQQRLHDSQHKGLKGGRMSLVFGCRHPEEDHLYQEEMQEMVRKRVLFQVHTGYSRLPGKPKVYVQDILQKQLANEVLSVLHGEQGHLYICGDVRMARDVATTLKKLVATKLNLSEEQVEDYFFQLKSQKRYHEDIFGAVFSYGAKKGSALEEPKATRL

[8] = DRUGMATRIX: Tumor Necrosis Factor (TNF), Non-Selective radioligand binding (ligand: [125I] TNF-alpha); type: cell membranes, Membrane; details: u-937; Not Active = under 50% inhibition at 10 µM

Vasopressin V1a receptor, sequence (P37288 whole entry): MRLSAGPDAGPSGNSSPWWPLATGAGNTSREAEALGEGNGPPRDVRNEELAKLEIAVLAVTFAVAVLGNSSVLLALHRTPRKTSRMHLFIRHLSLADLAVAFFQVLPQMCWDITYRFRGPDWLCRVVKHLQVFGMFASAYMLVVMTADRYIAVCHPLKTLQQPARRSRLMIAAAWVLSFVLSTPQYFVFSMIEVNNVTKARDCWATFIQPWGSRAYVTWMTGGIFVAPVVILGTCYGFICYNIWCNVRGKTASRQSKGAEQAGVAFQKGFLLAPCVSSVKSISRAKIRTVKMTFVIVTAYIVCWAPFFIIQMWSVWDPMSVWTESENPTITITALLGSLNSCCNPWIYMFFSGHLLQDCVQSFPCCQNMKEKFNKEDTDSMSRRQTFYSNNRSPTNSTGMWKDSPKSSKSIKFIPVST
Nitric oxide synthase 1, sequence (P29476 whole entry): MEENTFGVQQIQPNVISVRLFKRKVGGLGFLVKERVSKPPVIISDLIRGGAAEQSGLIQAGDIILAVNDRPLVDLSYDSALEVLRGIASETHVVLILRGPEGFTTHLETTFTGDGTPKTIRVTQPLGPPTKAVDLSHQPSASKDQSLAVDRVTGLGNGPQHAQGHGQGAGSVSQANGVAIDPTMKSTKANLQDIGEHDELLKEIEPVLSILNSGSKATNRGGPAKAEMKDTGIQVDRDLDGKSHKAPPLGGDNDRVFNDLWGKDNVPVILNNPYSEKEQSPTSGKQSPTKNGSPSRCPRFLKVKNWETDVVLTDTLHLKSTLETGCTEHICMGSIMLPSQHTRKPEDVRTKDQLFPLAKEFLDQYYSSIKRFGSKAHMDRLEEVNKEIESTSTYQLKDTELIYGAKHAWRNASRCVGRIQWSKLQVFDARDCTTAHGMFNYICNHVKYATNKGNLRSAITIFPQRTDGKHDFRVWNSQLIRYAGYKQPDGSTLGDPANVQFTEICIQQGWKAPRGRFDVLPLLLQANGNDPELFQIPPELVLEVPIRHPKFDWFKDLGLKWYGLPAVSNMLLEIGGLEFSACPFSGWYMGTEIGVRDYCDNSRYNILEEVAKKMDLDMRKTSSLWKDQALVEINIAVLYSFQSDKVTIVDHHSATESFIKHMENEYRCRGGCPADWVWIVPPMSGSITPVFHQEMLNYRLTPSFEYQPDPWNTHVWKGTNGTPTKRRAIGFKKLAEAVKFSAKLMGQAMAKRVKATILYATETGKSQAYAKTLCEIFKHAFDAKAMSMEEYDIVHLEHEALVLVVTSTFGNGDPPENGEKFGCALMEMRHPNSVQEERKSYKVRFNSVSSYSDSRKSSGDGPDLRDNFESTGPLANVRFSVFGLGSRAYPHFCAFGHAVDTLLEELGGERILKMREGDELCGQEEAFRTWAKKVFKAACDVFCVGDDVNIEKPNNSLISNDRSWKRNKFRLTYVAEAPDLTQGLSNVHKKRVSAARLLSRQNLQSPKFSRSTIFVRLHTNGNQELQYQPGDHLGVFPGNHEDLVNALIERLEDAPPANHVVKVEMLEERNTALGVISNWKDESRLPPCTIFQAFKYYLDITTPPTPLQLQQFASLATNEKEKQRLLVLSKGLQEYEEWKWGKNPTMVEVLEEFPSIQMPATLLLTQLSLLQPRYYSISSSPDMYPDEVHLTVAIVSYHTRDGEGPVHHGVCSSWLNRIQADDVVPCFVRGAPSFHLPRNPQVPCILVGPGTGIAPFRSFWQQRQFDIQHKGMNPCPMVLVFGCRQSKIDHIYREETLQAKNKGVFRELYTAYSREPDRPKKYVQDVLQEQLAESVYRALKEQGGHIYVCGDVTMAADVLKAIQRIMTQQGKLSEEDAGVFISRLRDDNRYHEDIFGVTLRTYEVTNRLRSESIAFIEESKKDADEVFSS
Matrix metalloproteinase-9, sequence (P14780 whole entry): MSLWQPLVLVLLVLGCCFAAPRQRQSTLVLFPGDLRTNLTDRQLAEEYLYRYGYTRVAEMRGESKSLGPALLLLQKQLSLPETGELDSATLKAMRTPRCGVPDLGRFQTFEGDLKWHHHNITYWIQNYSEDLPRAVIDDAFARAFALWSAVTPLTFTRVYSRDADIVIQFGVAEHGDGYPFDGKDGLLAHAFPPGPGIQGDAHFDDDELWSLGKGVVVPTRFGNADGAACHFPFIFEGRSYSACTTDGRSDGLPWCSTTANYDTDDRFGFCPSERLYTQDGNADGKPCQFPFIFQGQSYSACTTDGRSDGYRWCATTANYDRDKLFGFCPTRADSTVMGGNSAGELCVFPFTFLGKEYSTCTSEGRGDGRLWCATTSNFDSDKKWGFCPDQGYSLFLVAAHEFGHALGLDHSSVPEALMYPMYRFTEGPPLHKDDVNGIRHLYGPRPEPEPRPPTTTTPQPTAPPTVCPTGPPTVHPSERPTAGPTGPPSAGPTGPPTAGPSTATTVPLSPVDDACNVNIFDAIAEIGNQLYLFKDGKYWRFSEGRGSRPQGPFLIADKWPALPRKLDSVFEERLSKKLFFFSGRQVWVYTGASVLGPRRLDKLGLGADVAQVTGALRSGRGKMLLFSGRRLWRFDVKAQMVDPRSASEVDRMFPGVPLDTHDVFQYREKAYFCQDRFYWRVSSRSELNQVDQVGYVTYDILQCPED
Insulin receptor, sequence (P15127 27-759 limits assumed): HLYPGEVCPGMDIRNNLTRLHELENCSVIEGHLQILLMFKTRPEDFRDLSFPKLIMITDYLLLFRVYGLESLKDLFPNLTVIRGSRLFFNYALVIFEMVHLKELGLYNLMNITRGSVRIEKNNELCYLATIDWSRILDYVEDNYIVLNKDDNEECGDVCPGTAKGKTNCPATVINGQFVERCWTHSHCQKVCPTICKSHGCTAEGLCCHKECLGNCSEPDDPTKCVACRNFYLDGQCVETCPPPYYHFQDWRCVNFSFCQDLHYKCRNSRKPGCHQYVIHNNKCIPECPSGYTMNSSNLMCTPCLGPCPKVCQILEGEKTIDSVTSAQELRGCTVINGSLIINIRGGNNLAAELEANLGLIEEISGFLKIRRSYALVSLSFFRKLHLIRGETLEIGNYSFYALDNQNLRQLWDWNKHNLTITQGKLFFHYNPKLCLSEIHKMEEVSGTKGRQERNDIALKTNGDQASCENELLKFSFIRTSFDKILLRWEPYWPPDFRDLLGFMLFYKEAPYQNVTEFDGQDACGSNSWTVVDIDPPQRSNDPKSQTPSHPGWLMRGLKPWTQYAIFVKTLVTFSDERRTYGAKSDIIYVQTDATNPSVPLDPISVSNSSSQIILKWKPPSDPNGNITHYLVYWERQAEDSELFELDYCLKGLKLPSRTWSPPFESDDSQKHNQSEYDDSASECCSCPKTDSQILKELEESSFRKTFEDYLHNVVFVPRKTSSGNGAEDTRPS
Insulin receptor, sequence (P15127 764-1383 limits assumed): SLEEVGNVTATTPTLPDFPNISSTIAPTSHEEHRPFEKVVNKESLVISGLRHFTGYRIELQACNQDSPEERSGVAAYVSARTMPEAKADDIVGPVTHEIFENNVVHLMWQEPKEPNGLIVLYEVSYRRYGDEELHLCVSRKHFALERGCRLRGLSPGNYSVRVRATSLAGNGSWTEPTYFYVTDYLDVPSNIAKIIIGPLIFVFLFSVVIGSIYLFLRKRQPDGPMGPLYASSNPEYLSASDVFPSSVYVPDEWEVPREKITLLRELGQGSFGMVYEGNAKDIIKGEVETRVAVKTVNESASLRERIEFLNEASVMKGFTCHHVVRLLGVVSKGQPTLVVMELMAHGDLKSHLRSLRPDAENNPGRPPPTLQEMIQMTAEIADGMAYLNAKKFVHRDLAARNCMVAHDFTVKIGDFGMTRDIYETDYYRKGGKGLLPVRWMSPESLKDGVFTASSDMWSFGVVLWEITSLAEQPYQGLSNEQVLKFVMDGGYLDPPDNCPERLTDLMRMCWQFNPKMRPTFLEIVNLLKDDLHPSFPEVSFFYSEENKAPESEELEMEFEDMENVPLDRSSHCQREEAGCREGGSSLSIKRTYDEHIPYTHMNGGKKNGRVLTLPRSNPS
Prostaglandin G/H synthase 1, sequence (P23219 whole entry): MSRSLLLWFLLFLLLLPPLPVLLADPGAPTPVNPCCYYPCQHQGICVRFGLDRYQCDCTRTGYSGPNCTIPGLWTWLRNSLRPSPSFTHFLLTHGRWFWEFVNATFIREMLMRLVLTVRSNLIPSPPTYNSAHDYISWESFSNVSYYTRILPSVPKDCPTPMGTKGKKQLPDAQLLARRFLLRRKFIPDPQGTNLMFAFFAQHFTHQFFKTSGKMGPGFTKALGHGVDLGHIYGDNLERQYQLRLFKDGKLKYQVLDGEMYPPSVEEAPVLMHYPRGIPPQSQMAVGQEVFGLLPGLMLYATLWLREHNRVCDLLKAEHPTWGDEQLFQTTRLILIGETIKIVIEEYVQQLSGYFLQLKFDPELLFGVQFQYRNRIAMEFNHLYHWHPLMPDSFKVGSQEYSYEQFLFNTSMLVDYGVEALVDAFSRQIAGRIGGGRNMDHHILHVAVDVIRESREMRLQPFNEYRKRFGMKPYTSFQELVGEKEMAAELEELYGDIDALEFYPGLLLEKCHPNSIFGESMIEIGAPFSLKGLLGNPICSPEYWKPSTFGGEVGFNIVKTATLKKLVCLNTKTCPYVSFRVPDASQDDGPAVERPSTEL

| Structure (SMILES) | IC50 (B2 bradykinin receptor) | IC50 [1] | IC50 (Vasopressin V1a receptor) | IC50 [2] | IC50 [3] | IC50 (Insulin receptor) | IC50 [4] | Ki [4] | IC50 (Neutrophil elastase) | IC50 (Nitric oxide synthase 1) | IC50 [5] | IC50 ([6]; read-out: IC50) | Ki ([6]; read-out: Ki) | IC50 [7] | IC50 [8] | Ki [8] | IC50 [6] | Ki [6] |
| --- | --- | --- | --- | --- | --- | --- | --- | --- | --- | --- | --- | --- | --- | --- | --- | --- | --- | --- |
| COC(=O)[C@@H]1[C@H]2C[C@H]3c4[nH]c5ccccc5c4CCN3C[C@@H]2CC[C@@H]1O [YOHIMBINE] | Not Active | Not Active | Not Active | Not Active | Not Active | Not Active | Not Active | Not Active | Not Active | Not Active | Not Active | 157 nM | 105 nM | Not Active | Not Active | Not Active |  |  |
| CO[C@@H]1[C@@H](O[C@@H]2O[C@H](C)[C@@H](O[C@H]3C[C@@](C)(O)[C@@H](OC(=O)CC(C)C)[C@H](C)O3)[C@H](N(C)C)[C@H]2O)[C@@H](CC=O)C[C@@H](C)[C@@H](O)/C=C/C=C/C[C@@H](C)OC(=O)C[C@H]1O [KITASAMYCIN] | Not Active | Not Active | Not Active | Not Active | Not Active | Not Active | Not Active | Not Active | Not Active | Not Active | Not Active |  |  | Not Active | Not Active | Not Active | Not Active | Not Active |
| Clc1ccc(C(c2ccccc2Cl)C(Cl)Cl)cc1 (stereo not drawn) [MITOTANE] | Not Active | Not Active | Not Active | Not Active | Not Active | Not Active | Not Active | Not Active | Not Active | Not Active | Not Active |  |  | Not Active | Not Active | Not Active | Not Active | Not Active |
| C=CC[C@@H]1/C=C(\C)C[C@H](C)C[C@H](OC)[C@H]2O[C@@](O)(C(=O)C(=O)N3CCCC[C@H]3C(=O)O[C@H](/C(C)=C/[C@@H]3CC[C@@H](O)[C@H](OC)C3)[C@H](C)[C@@H](O)CC1=O)[C@H](C)C[C@@H]2OC [TACROLIMUS ANHYDROUS] | Not Active | Not Active | Not Active | Not Active | Not Active | Not Active | Not Active | Not Active | Not Active | Not Active | Not Active |  |  | Not Active | Not Active | Not Active | Not Active | Not Active |
| COc1ccc(C(CN(C)C)C2(O)CCCCC2)cc1 (stereo not drawn) [VENLAFAXINE] | Not Active | Not Active | Not Active | Not Active | Not Active | Not Active | Not Active | Not Active | Not Active | Not Active | Not Active |  |  | Not Active | Not Active | Not Active | Not Active | Not Active |
| CC(C)(C)NCC(O)c1cc(O)cc(O)c1 (stereo not drawn) [TERBUTALINE] | Not Active | Not Active | Not Active | Not Active | Not Active | Not Active | Not Active | Not Active | Not Active | Not Active | Not Active |  |  | Not Active | Not Active | Not Active | Not Active | Not Active |
| Cc1cc(NS(=O)(=O)c2ccc(N)cc2)no1 [SULFAMETHOXAZOLE] | Not Active | Not Active | Not Active | Not Active | Not Active | Not Active | Not Active | Not Active | Not Active | Not Active | Not Active |  |  | Not Active | Not Active | Not Active | Not Active | Not Active |
| COC(=O)c1ccc(O)cc1 [METHYLPARABEN] | Not Active | Not Active | Not Active | Not Active | Not Active | Not Active | Not Active | Not Active | Not Active | Not Active | Not Active |  |  | Not Active | Not Active | Not Active | Not Active | Not Active |
